The values below come from ChEMBL document CHEMBL1139527, “Synthesis, modeling, and in vitro activity of (3'S)-epi-K-252a analogues. Elucidating the stereochemical requirements of the 3'-sugar alcohol on trkA tyrosine kinase activity” (J Med Chem, 2005).

Test [1] can be described thus: Relative binding to PKC and TrkA.
Test [2] deals with T1, High affinity nerve growth factor receptor (Homo sapiens, UniProt P04629). In words: Inhibition of baculovirus expressed human trkA.
A short description of test [3]: Inhibition of [gamma-32P]-ATP binding to protein kinase C (1.5 ng) done for 10 min in pH 7.4 at 37 degree C with compound dissolved in DMSO using in In-Plate assay.
Test [4] has as its target T1, High affinity nerve growth factor receptor. Briefly: Inhibition of NGF-stimulated TrkA phosphorylation in NIH3T3 cells. It is filed as cell-based.

Bounds are passed on as bounds.

As a reminder, the IC50 is the point on the concentration scale where inhibition reaches its midpoint.

T1 sequence (P04629 whole entry): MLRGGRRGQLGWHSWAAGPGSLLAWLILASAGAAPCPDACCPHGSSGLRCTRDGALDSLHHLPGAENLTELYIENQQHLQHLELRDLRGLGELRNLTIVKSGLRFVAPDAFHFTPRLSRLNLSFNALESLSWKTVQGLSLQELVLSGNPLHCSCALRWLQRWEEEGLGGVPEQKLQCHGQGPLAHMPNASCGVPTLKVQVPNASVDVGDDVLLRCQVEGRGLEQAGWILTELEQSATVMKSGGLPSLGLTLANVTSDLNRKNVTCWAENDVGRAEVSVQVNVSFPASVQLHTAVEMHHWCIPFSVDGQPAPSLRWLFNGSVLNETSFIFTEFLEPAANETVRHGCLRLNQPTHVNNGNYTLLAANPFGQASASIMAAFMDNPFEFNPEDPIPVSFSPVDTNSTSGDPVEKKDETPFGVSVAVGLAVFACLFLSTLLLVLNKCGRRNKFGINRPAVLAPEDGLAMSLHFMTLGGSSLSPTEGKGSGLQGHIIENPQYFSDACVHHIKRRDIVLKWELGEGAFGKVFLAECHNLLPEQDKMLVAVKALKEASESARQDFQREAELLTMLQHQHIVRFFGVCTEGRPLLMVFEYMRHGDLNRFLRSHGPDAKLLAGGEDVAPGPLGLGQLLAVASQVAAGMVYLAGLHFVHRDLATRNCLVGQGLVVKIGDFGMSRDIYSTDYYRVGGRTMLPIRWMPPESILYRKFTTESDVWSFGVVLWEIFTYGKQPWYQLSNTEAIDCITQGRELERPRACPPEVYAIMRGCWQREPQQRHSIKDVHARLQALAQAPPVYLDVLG

As for `CO[C@]1(CO)C[C@H]2O[C@]1(C)n1c3ccccc3c3c4c(c5c6ccccc6n2c5c31)C(=O)NC4`, the Ratio in test [1] is 39. Further, the figures for the 50% inhibitory concentration (IC50) in test [2] and in test [3] were 2.9 nM and 114 nM, respectively.

On to `C[C@]1(O)C[C@H]2O[C@]1(C)n1c3ccccc3c3c4c(c5c6ccccc6n2c5c31)C(=O)NC4`, for which the values for the IC50 in test [2], in test [4] and in test [3] were 3 nM, below 10 nM and 850 nM, respectively.

With `C[C@@]1(O)C[C@H]2O[C@]1(C)n1c3ccccc3c3c4c(c5c6ccccc6n2c5c31)C(=O)NC4`, the figures for the IC50 in test [2] and in test [3] were 20 nM and 310 nM, respectively.

On to `CC1(C)O[C@@H](n2c3ccccc3c3c4c(c5c6ccccc6[nH]c5c32)CNC4=O)C[C@]1(O)CO`, for which the IC50 in test [2] came to 4 nM; in test [3], 218 nM.

On to `CC1(C)O[C@@H](n2c3ccccc3c3c4c(c5c6ccccc6[nH]c5c32)CNC4=O)C[C@@]1(O)CO`, for which the IC50 came to 4 nM in test [2] and 79 nM in test [3].

For the molecule `COC(=O)[C@@]1(O)C[C@H]2O[C@]1(C)n1c3ccccc3c3c4c(c5c6ccccc6n2c5c31)C(=O)NC4` [K-252A], the half-inhibitory concentration (IC50) in test [3] was determined as 250 nM.

With `C[C@]12O[C@H](C[C@@]1(O)C(N)=O)n1c3ccccc3c3c4c(c5c6ccccc6n2c5c31)CNC4=O`, the concentration for half-maximal inhibition (IC50) in test [2] was 29 nM; in test [3], 663 nM.

Turning to `COC(=O)[C@]1(O)C[C@H]2O[C@]1(C)n1c3ccccc3c3c4c(c5c6ccccc6n2c5c31)C(=O)NC4`, the 50% inhibitory concentration (IC50) in test [3] is 114 nM.
